What all share (experiment): NCI tumour cell line growth inhibition, 48 h
The subject of assay [1] is IGROV1 ovarian.
The test system of assay [2] is UACC-62 melanoma.
Assay [3] has as its system OVCAR-3 ovarian.
Assay [4] has as its system NCI-H460 lung.
Assay [5] deals with SF-268 CNS.
Assay [6] deals with K-562 leukemia.
The test system of assay [7] is OVCAR-8 ovarian.
The test system of assay [8] is A498 renal.
Assay [9] concerns EKVX NSCLC.
Assay [10] deals with HCC-2998 colon.

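These data come from cells grown in 96-well plates and exposed to compound for 48 hours at five concentrations. The concentration for 50% growth inhibition is given as GI50. At the TGI there is no net growth.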 A value given as a limit tells only on which side of the number the result lay.

Take `CC(=O)[CH-]C(=O)c1ccccc1.CC(=O)[CH-]C(=O)c1ccccc1.O=C([O-])C[O-].O=C([O-])C[O-].[Ti+4]`: the GI50 in [1] is greater than 100 µM; in assay [2], greater than 100 µM; in [3], 42.7 µM; in assay [4], 28.4 µM; in [5] it was greater than 100 µM; in assay [6], 71.4 µM. Also, the GI50 is 77 µM in assay [7], greater than 100 µM in assay [8], 96.7 µM in assay [9] and 40.3 µM in assay [10]. For the same compound, the TGI in assay [1], in assay [2], in assay [3], in assay [4], in [5] and in [6] was greater than 100 µM each time. Also, the TGI in assay [7], in assay [8], in assay [9] and in [10] was greater than 100 µM throughout.

On to `COc1ccc(-c2coc3ncnc(N)c23)cc1`, for which the GI50 in assay [1], in [2], in [3], in assay [4], in [5] and in assay [6] was greater than 25 µM in each case. Also, the GI50 in assay [7] was greater than 25 µM; in assay [8], 13.7 µM; in assay [9] it was greater than 25 µM; in [10], greater than 25 µM. For the same compound, the TGI in assay [1], in [2], in [3], in assay [4], in [5] and in assay [6] was greater than 25 µM throughout. The TGI in [7], in [8], in assay [9] and in assay [10] was greater than 25 µM in each case.

Take `COc1ccc(C(=O)/C=C/c2cc3ccccc3[nH]c2=O)cc1`: the GI50 in assay [1] is 28.6 µM; in [2] it was 24.4 µM; in assay [3], 17.9 µM; in assay [4] it was 19.8 µM; in assay [5], 18.1 µM; in assay [6] it was greater than 57.6 µM. Besides, the GI50 in assay [7] was 21.7 µM; in assay [8], greater than 38.4 µM; in [9], 22.6 µM; in [10] it was 17.3 µM. Moreover, the TGI is 97.6 µM in assay [1]; greater than 57.8 µM in [2]; 36.4 µM in assay [3]; greater than 43.4 µM in assay [4]; 43 µM in assay [5]; greater than 100 µM in [6]. Besides, the TGI in assay [7] is greater than 100 µM; in assay [8], greater than 100 µM; in assay [9], greater than 94.3 µM; in assay [10], 31.3 µM.

For the origin of these results see PubChem BioAssay (NCI).
